Consider 19 compounds from PubChem BioAssay AID192 (DTP/NCI, 2004).

Where “and” joins values, the source holds several entries; their conditions need not be identical. Equal entries are not always repeated. Inconclusive results and toxic doses are left out.

The assay has as its system BDF1 mice, B16 melanoma ip, median survival T/C. As to the kind of experiment: NCI In Vivo Anticancer Drug Screen. Data for tumor model B16 Melanoma (intraperitoneal) in B6D2F1 (BDF1) mice. To be noted: endpoint: median survival time, higher = longer survival. An outline of the steps:
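The ratio T/C compares compound-treated mice with vehicle-treated controls, using survival or tumor size as the endpoint in a transplantable tumor model.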

The mark [1] stands for this setting: dose: 6.25 mg/kg/injection, schedule: Q01DX009 (ip), vehicle: saline.
Where [2] appears, read: dose: 12.5 mg/kg/injection, schedule: Q01DX009 (ip), vehicle: saline.
[3] abbreviates: dose: 100.0 mg/kg/injection, schedule: Q01DX009 (ip), vehicle: Klucel (hydroxypropylcellulose) (HPC).
Where [4] appears, read: dose: 200.0 mg/kg/injection, schedule: Q01DX009 (ip), vehicle: Klucel (hydroxypropylcellulose) (HPC).
[5] abbreviates: dose: 400.0 mg/kg/injection, schedule: Q01DX009 (ip), vehicle: Klucel (hydroxypropylcellulose) (HPC).
The mark [6] stands for this setting: dose: 50.0 mg/kg/injection, schedule: Q01DX009 (ip), vehicle: saline with Tween-80.
[7] abbreviates: dose: 100.0 mg/kg/injection, schedule: Q01DX009 (ip), vehicle: saline with Tween-80.
Where [8] appears, read: dose: 6.25 mg/kg/injection, schedule: Q01DX009 (ip), vehicle: Klucel (hydroxypropylcellulose) (HPC).
Setting [9] is: dose: 12.5 mg/kg/injection, schedule: Q01DX009 (ip), vehicle: Klucel (hydroxypropylcellulose) (HPC).
Setting [10] is: dose: 25.0 mg/kg/injection, schedule: Q01DX009 (ip), vehicle: Klucel (hydroxypropylcellulose) (HPC).
[11] abbreviates: dose: 50.0 mg/kg/injection, schedule: Q01DX009 (ip), vehicle: Klucel (hydroxypropylcellulose) (HPC).

As for `O=C1c2c(O)ccc(O)c2C(=O)c2c(NCCNCCO)ccc(NCCNCCO)c21`, the T/C was 110 % of control (dose: 0.13 mg/kg/injection, schedule: Q01DX009 (ip), vehicle: saline with Tween-80); 186 % of control and 188 % of control (dose: 0.25 mg/kg/injection, schedule: Q01DX009 (ip), vehicle: saline); 157 % of control and 160 % of control and 174 % of control (dose: 0.25 mg/kg/injection, schedule: Q01DX009 (ip), vehicle: water); 98 % of control (dose: 0.25 mg/kg/injection, schedule: Q01DX009 (oral), vehicle: acid diluted with saline); 218 % of control (dose: 0.5 mg/kg/injection, schedule: Q01DX009 (ip), vehicle: saline); 218 % of control and 225 % of control and 247 % of control (dose: 0.5 mg/kg/injection, schedule: Q01DX009 (ip), vehicle: water). The T/C is, setting by setting: (dose: 0.5 mg/kg/injection, schedule: Q01DX009 (oral), vehicle: acid diluted with saline) 104 % of control; (dose: 1.0 mg/kg/injection, schedule: Q01DX009 (ip), vehicle: saline with Tween-80) 152 % of control and 156 % of control; (dose: 1.0 mg/kg/injection, schedule: Q01DX009 (ip), vehicle: saline) 260 % of control and 267 % of control; (dose: 1.0 mg/kg/injection, schedule: Q01DX009 (ip), vehicle: water) 121 % of control and 202 % of control and 261 % of control; (dose: 1.25 mg/kg/injection, schedule: Q01DX001 (ip), vehicle: acid diluted with saline) 153 % of control; (dose: 2.0 mg/kg/injection, schedule: Q01DX001 (ip), vehicle: water) 212 % of control. The T/C (dose: 2.0 mg/kg/injection, schedule: Q01DX009 (ip), vehicle: saline) was 207 % of control and 251 % of control; the T/C (dose: 2.0 mg/kg/injection, schedule: Q01DX009 (ip), vehicle: water) was 221 % of control; the T/C (dose: 2.5 mg/kg/injection, schedule: Q01DX001 (ip), vehicle: acid diluted with saline) is 123 % of control and 205 % of control; the T/C (dose: 4.0 mg/kg/injection, schedule: Q01DX001 (ip), vehicle: water) was 202 % of control; the T/C (dose: 8.0 mg/kg/injection, schedule: Q01DX001 (ip), vehicle: water) is 303 % of control.
For `O=C1[O][Hg][c]2cccc3cccc1c23`, the T/C (dose: 1.65 mg/kg/injection, schedule: Q04DX003 (ip), vehicle: saline with Tween-80) is 106 % of control; the T/C (dose: 2.5 mg/kg/injection, schedule: Q01DX009 (ip), vehicle: saline with Tween-80) was 88 % of control; the T/C (dose: 2.5 mg/kg/injection, schedule: Q04DX003 (ip), vehicle: saline with Tween-80) is 100 % of control; the T/C (dose: 5.0 mg/kg/injection, schedule: Q01DX009 (ip), vehicle: saline with Tween-80) was 86 % of control; the T/C (dose: 10.0 mg/kg/injection, schedule: Q04DX003 (ip), vehicle: saline with Tween-80) is 123 % of control.
Consider `CN(C)CCOC(c1ccccc1)c1ccccc1`, for which the T/C (dose: 3.12 mg/kg/injection, schedule: Q01DX009 (ip), vehicle: saline) was 86 % of control; the T/C under setting [1] was 100 % of control; the T/C under setting [2] was 100 % of control.
For the compound `COC(=O)C1C2CC3c4[nH]c5ccc(OC)cc5c4CCN3CC2CC(OC(=O)c2cc(OC)c(OC)c(OC)c2)C1OC` (stereo unspecified), the T/C is 88 % of control (dose: 0.17 mg/kg/injection, schedule: Q01DX009 (ip), vehicle: Klucel (hydroxypropylcellulose) (HPC)); 110 % of control (dose: 0.35 mg/kg/injection, schedule: Q01DX009 (ip), vehicle: Klucel (hydroxypropylcellulose) (HPC)); 91 % of control (dose: 1.42 mg/kg/injection, schedule: Q01DX009 (ip), vehicle: Klucel (hydroxypropylcellulose) (HPC)); 89 % of control (dose: 2.85 mg/kg/injection, schedule: Q01DX009 (ip), vehicle: Klucel (hydroxypropylcellulose) (HPC)); 100 % of control (dose: 22.81 mg/kg/injection, schedule: Q01DX009 (ip), vehicle: Klucel (hydroxypropylcellulose) (HPC)); 98 % of control (dose: 45.62 mg/kg/injection, schedule: Q01DX009 (ip), vehicle: Klucel (hydroxypropylcellulose) (HPC)).
`Cc1ccc(C)c(NC(=O)Nc2ccccc2)c1`: the T/C under setting [3] is 96 % of control, the T/C under setting [4] was 110 % of control and the T/C under setting [5] was 96 % of control.
As to `C[n+]1c2cc(N)ccc2cc2ccc(N)cc21`, the T/C was 107 % of control (dose: 1.56 mg/kg/injection, schedule: Q01DX009 (ip), vehicle: saline); 117 % of control (dose: 3.13 mg/kg/injection, schedule: Q01DX009 (ip), vehicle: saline); 115 % of control under setting [1]; 111 % of control under setting [2].
Regarding `Cc1ccc(C(=O)CCCCl)c(C)c1`, the T/C under setting [6] was 100 % of control; the T/C under setting [7] is 101 % of control; the T/C (dose: 200.0 mg/kg/injection, schedule: Q01DX009 (ip), vehicle: saline with Tween-80) was 108 % of control.
As for `CCNC(C)(C)C(SSSC(c1ccc(Cl)cc1)C(C)(C)NCC)c1ccc(Cl)cc1` (stereo unspecified), the T/C runs as follows: under setting [8], 108 % of control; under setting [9], 94 % of control; under setting [10], 89 % of control and 94 % of control.
In the case of `Nc1ccc(S(=O)(=O)Nc2cccc3ccccc23)cc1`, the T/C is 100 % of control under setting [3], 100 % of control under setting [4] and 96 % of control under setting [5].
Turning to `Nc1nc(=S)c2n[nH]nc2[nH]1`, the T/C by setting is: (dose: 12.5 mg/kg/injection, schedule: Q01DX009 (ip), vehicle: saline with Tween-80) 96 % of control; (dose: 25.0 mg/kg/injection, schedule: Q01DX009 (ip), vehicle: saline with Tween-80) 108 % of control; under setting [6], 113 % of control; under setting [7], 88 % of control.
As to `O=C(Nc1ccccc1)Oc1ccc(Cl)cc1`, the T/C was 93 % of control under setting [3], 94 % of control under setting [4] and 99 % of control under setting [5].
With `Clc1ccc2c(c1)/C(=C\c1ccnc3ccccc13)c1cc(Cl)cc(Cl)c1-2`, where the note is “dose: 6.25 mg/kg/injection, schedule: Q01DX009 (ip), vehicle: saline with Tween-80”, the T/C is 93 % of control.
For `COc1ccc(/C=C(\NC(C)=O)C(=O)O)cc1`, the T/C is 97 % of control (dose: 100.0 mg/kg/injection, schedule: Q04DX003 (ip), vehicle: Klucel (hydroxypropylcellulose) (HPC)); 105 % of control (dose: 200.0 mg/kg/injection, schedule: Q04DX003 (ip), vehicle: Klucel (hydroxypropylcellulose) (HPC)); 91 % of control (dose: 400.0 mg/kg/injection, schedule: Q04DX003 (ip), vehicle: Klucel (hydroxypropylcellulose) (HPC)).
Consider `O=c1oc(-c2cccc([N+](=O)[O-])c2)nc2ccccc12`, for which the T/C was 106 % of control under setting [11] and 86 % of control under setting [3].
Take `COc1cccc2c1C(=O)c1c(O)c3c(c(O)c1C2=O)C[C@@](O)(C(C)O)C[C@@H]3OC1CC(N2CCC(OC)CC2)C(O)C(C)O1` (stereo partly specified): the T/C by setting is: (dose: 3.12 mg/kg/injection, schedule: Q01DX001 (ip), vehicle: water) 112 % of control; (dose: 6.25 mg/kg/injection, schedule: Q01DX001 (ip), vehicle: water) 117 % of control; (dose: 12.5 mg/kg/injection, schedule: Q01DX001 (ip), vehicle: water) 173 % of control; (dose: 25.0 mg/kg/injection, schedule: Q01DX001 (ip), vehicle: water) 165 % of control and 166 % of control; (dose: 50.0 mg/kg/injection, schedule: Q01DX001 (ip), vehicle: water) 177 % of control.
Regarding `CN(C)N=Nc1ccccc1`, the T/C under setting [8] is 120 % of control; the T/C under setting [9] is 112 % of control and 123 % of control; the T/C under setting [10] is 117 % of control.
For `c1ccc(C2c3ccccc3C(c3ccccc3)(c3ccccc3)c3ccccc32)cc1`, the T/C under setting [9] was 87 % of control, the T/C under setting [10] is 101 % of control, the T/C under setting [11] is 97 % of control and the T/C under setting [3] was 86 % of control.
For `CC(C)NCC(O)COc1cccc2ccccc12` (stereo unspecified), the T/C is 99 % of control and 112 % of control (dose: 4.0 mg/kg/injection, schedule: Q01DX009 (ip), vehicle: Klucel (hydroxypropylcellulose) (HPC)); 101 % of control (dose: 8.0 mg/kg/injection, schedule: Q01DX009 (ip), vehicle: Klucel (hydroxypropylcellulose) (HPC)); 98 % of control and 108 % of control (dose: 16.0 mg/kg/injection, schedule: Q01DX009 (ip), vehicle: Klucel (hydroxypropylcellulose) (HPC)); 91 % of control and 95 % of control (dose: 32.0 mg/kg/injection, schedule: Q01DX009 (ip), vehicle: Klucel (hydroxypropylcellulose) (HPC)); 97 % of control and 101 % of control (dose: 64.0 mg/kg/injection, schedule: Q01DX009 (ip), vehicle: Klucel (hydroxypropylcellulose) (HPC)).
For the compound `NC(=O)c1ncn(C2OC(CO)C(O)C2O)c1O` (stereo unspecified), the T/C by setting is: under setting [10], 104 % of control; under setting [11], 114 % of control; under setting [3], 109 % of control; under setting [4], 111 % of control.
